# Assay results: patent US20130045239A1, “Method for Modulating the Pharmacodynamic Effect of Orally Administered Guanylate Cyclase Receptor Agonists” (Ironwood Pharmaceuticals, Inc., priority 2009, published 2013)
# Marks after values point to notes of the source that are not given here. Positions of bridges follow the written chain, without caps; N, C: chain ends. Residues, ends and D or L forms follow the SMILES beside them.
# Tests used:
# Assay type in all cases: in vivo, human
# [1] = Linaclotide food effect study: plasma levels of linaclotide and its metabolite; conditions: for Cmax / Tmax: human, plasma, po, 3000 ug, single oral dose 3000 ug, fasted
# Method: (§1) During the Pretreatment Phase of each Crossover Period, subjects were not to receive study drug. On Day 8 of Crossover Period 1 and Day 43 of Crossover Period 2, subjects started the Treatment Phase and were to receive 300 ug linaclotide once daily for a total of 7 days. On Day 14 and 15 of Crossover Period 1, blood was to be drawn to assay for linaclotide and its active metabolite. After the study procedures were completed on Day 15, subjects were discharged home with instructions to follow the same outpatient diet that they followed during the Screening Stage and to return to the Phase 1 unit on Day 35 for Crossover Period 2. On Day 50 of Crossover Period 2, subjects were to receive a single oral dose of 3000 ug linaclotide and were discharged from the Phase 1 unit on Day 51. After subjects received the 3000 ug dose, blood was to be drawn on Day 50 and 51 to assay for linaclotide and linaclotide metabolites.
# Blood samples were to be collected at 0 hour (prior to dosing) and 0.5, 1, 2, 3, 4, 6 and 24 hours post dose on Day 14 of Crossover Period 1 and on Day 50 of Crossover Period 2, for determination of the following PK parameters for linaclotide and a metabolite of linaclotide (CCEYCCNPACTGC (SEQ ID NO: 10)) (if systemic levels of linaclotide and or the metabolite are detected): maximum observed plasma concentration (Cmax), time to maximum concentration (Tmax), area under the plasma concentration time curve (AUC0-t), area under the plasma concentration time curve extrapolated to infinity (AUC0-∞), clearance relative to bioavailability (CL/F), apparent volume of distribution (Vd/F), apparent terminal half life (t1/2).
# healthy volunteers = test: Linaclotide food effect study: pharmacodynamic effect on bowel habits under fed vs fasted conditions
# Method: The randomized, open-label, two-period, two-sequence, crossover trial of oral linaclotide in healthy volunteers tested under fasted or fed conditions summarized herein was undertaken to determine if linaclotide is susceptible to a food effect. The study consisted of 4 stages: an 8-day to 15-day Screening Stage, two 15- to 16-day Crossover Periods (1 and 2), and a 21-day Washout Stage which was to occur between Crossover Periods 1 and 2. The doses tested in this study were 300 ug and a 1-day dose of 3000 ug at the end of Crossover Periods 1 and 2.
# The study consisted of 4 stages: an 8-day to 15-day Screening Stage which was to take place at home and determine eligibility, two 15- to 16-day stages (Crossover Periods 1 and 2) which were to take place in a Phase 1 unit, and a 21-day Washout Stage which was to take place at home and occur between Crossover Periods 1 and 2. The individual study Stages are detailed below.
# Eligible subjects were entered into the Phase 1 unit and were randomized to 1 of 2 Treatment Sequences. Sequence 1 (Fed-Fasted): During Crossover Period 1, linaclotide was to be administered immediately after a high-fat breakfast (the fed condition); during Crossover Period 2, linaclotide was to be administered after a 10-hour fast (the fasted condition). Sequence 2 (Fasted-Fed): During Crossover Period 1, linaclotide was to be administered under the fasted condition; during Crossover Period 2, linaclotide was to be administered under the fed condition.
# Crossover Period 1 lasted for 15 days and Crossover Period 2 started on Day 35, immediately after the 21-day Washout Stage, and lasted for 16 days. Subjects were to record their bowel habits in their BHD and ingest their meals at the time determined by their randomization sequence. At a specified time on each day, the information in the BHD was to be reviewed by the site staff to insure appropriate completion.
# as §1
# Linaclotide was to be administered at the same time each morning with 240 cc (8 oz) of water; food was to be withheld for approximately 4 hr after dosing, and additional water was to be withheld from 1 hour before linaclotide administration until 1 hour after dosing. Under the fed condition, subjects were required to start and complete a high-fat breakfast during the 30 minutes before linaclotide administration. Under the fasted condition, linaclotide was to be administered following an overnight fast.
# All meals and meal times were standardized during Crossover Periods 1 and 2 with the total daily calorie, fat, and fiber intake the same for each diet condition (fed and fasted). The daily quantity of these nutrients was based on the “United States Department of Agriculture (USDA) Dietary Recommendations for Americans.” Each subject received approximately 2000 total calories per day.
# Linaclotide, 300 ug, oral gelatin capsule. Linaclotide, 3000 ug (5 oral gelatin capsules of 600 ug linaclotide each), single dose.
# The primary endpoint was the change from Pretreatment Phase to Treatment Phase for each Crossover Period in stool consistency on the BSFS scale. […]
# [2] = Linaclotide food effect study: 24-hour stool recovery; conditions: following 7 days of dosing at 300 ug per day, both fed and fasted conditions; predominately as a major linaclotide metabolite
# Method: As for the 24-hour stool results, approximately 3 percent of a single dose of linaclotide was recovered on average following 7 days of dosing at 300 ug per day under both fed and fasted conditions. The recovery was predominately in the form of a major linaclotide metabolite.
# [3] = 300 ug once daily, Fasted, last 4 days of treatment
# [4] = 300 ug once daily, Fasted, over 7 days of treatment
# [5] = 300 ug once daily, Fed, last 4 days of treatment
# [6] = 300 ug once daily, Fed, over 7 days of treatment
# [7] = 300 ug once daily, last 4 days of treatment
# [8] = 300 ug once daily, over 7 days of treatment
compound,measurement,setting,value
"CCEYCCNPACTGC (Synthetically generated peptide) [linaclotide metabolite, a metabolite of linaclotide]",Plasma level of linaclotide metabolite,"[1]; 300 ug linaclotide oral for 7 days of treatment, all subjects, no quantifiable levels, limit of detection=2.0 ng/ml",< 2.0 ng/mL
same,Metabolite in plasma,"[1]; after linaclotide dosing (300 ug and 3000 ug), any subject",No metabolite (SEQ ID NO: 10) was detected
"C[C@@H]1NC(=O)[C@@H]2CCCN2C(=O)[C@H](CC(N)=O)NC(=O)[C@@H]2CSSC[C@H](N)C(=O)N[C@H]3CSSC[C@H](NC1=O)C(=O)N[C@@H]([C@@H](C)O)C(=O)NCC(=O)N[C@H](C(=O)N[C@@H](Cc1ccc(O)cc1)C(=O)O)CSSC[C@H](NC(=O)[C@H](Cc1ccc(O)cc1)NC(=O)[C@H](CCC(=O)O)NC3=O)C(=O)N2 [Linaclotide, Cys Cys Glu Tyr Cys Cys Asn Pro Ala Cys Thr Gly Cys Tyr] (H-CCEYCCNPACTGCY-OH; disulfide 1-6, 2-10, 5-13)","CSBM, Change from Pretreatment Mean (SEM)",healthy volunteers; [3],0.39 (0.293)
same,"SBM, Change from Pretreatment Mean (SEM)",healthy volunteers; [3],0.72 (0.419)
same,"BSFS Score, Change from Pretreatment Mean (SEM)","healthy volunteers; 300 ug once daily, Fasted, last 4 days of treatment (Sensitivity Analysis)",1.97 (0.174)
same,"BSFS Score, Change from Pretreatment Mean (SEM)",healthy volunteers; [4],1.84 (0.177)
same,"CSBM, Change from Pretreatment Mean (SEM)",healthy volunteers; [4],1.00 (0.443)
same,"SBM, Change from Pretreatment Mean (SEM)",healthy volunteers; [4],1.50 (0.487)
same,"Straining Score, Change from Pretreatment Mean (SEM)",healthy volunteers; [4],−0.17 (0.057)
same,"CSBM, Change from Pretreatment Mean (SEM)",healthy volunteers; [5],1.00 (0.647)
same,"SBM, Change from Pretreatment Mean (SEM)",healthy volunteers; [5],2.28 (0.704)
same,"BSFS Score, Change from Pretreatment Mean (SEM)","healthy volunteers; 300 ug once daily, Fed, last 4 days of treatment (Sensitivity Analysis)",2.36 (0.230)
same,"BSFS Score, Change from Pretreatment Mean (SEM)",healthy volunteers; [6],2.45 (0.159)
same,"CSBM, Change from Pretreatment Mean (SEM)",healthy volunteers; [6],4.06 (1.181)
same,"SBM, Change from Pretreatment Mean (SEM)",healthy volunteers; [6],5.94 (1.503)
same,"Straining Score, Change from Pretreatment Mean (SEM)",healthy volunteers; [6],−0.16 (0.064)
same,"CSBM, Difference Mean and 90 percent CI Fed-Fasted Difference",healthy volunteers; [7],"0.61 (−0.49, 1.71)"
same,"SBM, Difference Mean and 90 percent CI Fed-Fasted Difference",healthy volunteers; [7],"1.56 (0.60, 2.51)"
same,"BSFS Score, Difference Mean and 90 percent CI Fed-Fasted Difference","healthy volunteers; 300 ug once daily, last 4 days of treatment (Sensitivity Analysis)","0.38 (−0.09, 0.86)"
same,"BSFS Score, Difference Mean and 90% CI Fed-Fasted Difference",healthy volunteers; [8],"0.61 (0.25, 0.98)^c"
same,"CSBM, Difference Mean and 90% CI Fed-Fasted Difference",healthy volunteers; [8],"3.06 (0.90, 5.21)"
same,"SBM, Difference Mean and 90% CI Fed-Fasted Difference",healthy volunteers; [8],"4.44 (2.22, 6.67)"
same,"Straining Score, Difference Mean and 90% CI Fed-Fasted Difference",healthy volunteers; [8],"0.01 (−0.12, 0.14)"
same,Equivalence of fasted versus fed condition on change from pretreatment BSFS Scores (primary endpoint analysis),"healthy volunteers; 300 ug, 7 days of treatment, 90 percent CI against equivalence margins of ±0.6125",did not demonstrate equivalence
same,Equivalence of fed versus fasted condition on BSFS Score (Sensitivity Analysis),"healthy volunteers; 300 ug, last 4 days of treatment, 90 percent CI against equivalence margins of ±0.6125",did not fall within the equivalence margins
same,Cmax,[1]; subject 001012,0.735 ng/mL
same,Tmax,[1]; subject 001012,2 h
same,Tmax,[1]; subject 001019,0.5 h
same,Cmax,"[1]; subject 001019 (single measurable sample, at LLOQ)",0.212 ng/mL
same,"Recovery of a single dose in 24-hour stool, on average",[2],approximately 3%
